According to ChEMBL document CHEMBL4308841, “Synthesis, in vitro antiproliferative activity, and kinase inhibitory effects of pyrazole-containing diarylureas and diarylamides” (Eur J Med Chem, 2018):

What was measured:
K562 [1] = experiment: Growth inhibition of human K562 cells assessed as cell growth at 0.1 uM incubated for 48 hrs by sulforhodamine B assay relative to control; format: functional; details: K562, 48 h, read-out: Activity
SK-OV-3 [2] = experiment: Growth inhibition of human SKOV3 cells incubated for 48 hrs by sulforhodamine B assay; format: functional, cell-based; details: SK-OV-3, 48 h
UACC-257 = experiment: Growth inhibition of human UACC257 cells incubated for 48 hrs by sulforhodamine B assay; format: functional, cell-based; details: UACC-257, 48 h
IGROV-1 = experiment: Growth inhibition of human IGROV1 cells assessed as cell growth at 0.1 uM incubated for 48 hrs by sulforhodamine B assay relative to control; format: functional; details: IGROV-1, 48 h, read-out: Activity
MDA-MB-231 = experiment: Growth inhibition of human MDA-MB-231 cells assessed as cell growth at 1 uM incubated for 48 hrs by sulforhodamine B assay relative to control; format: functional; details: MDA-MB-231, 48 h, read-out: Activity
MOLT-4 = experiment: Growth inhibition of human MOLT4 cells incubated for 48 hrs by sulforhodamine B assay; format: functional, cell-based; details: MOLT-4, 48 h
A549 [3] = experiment: Growth inhibition of human A549/ATCC cells assessed as cell growth at 0.1 uM incubated for 48 hrs by sulforhodamine B assay relative to control; format: functional; details: A549, 48 h, read-out: Activity
SK-MEL-5 [4] = experiment: Growth inhibition of human SK-MEL-5 cells assessed as cell growth at 1 uM incubated for 48 hrs by sulforhodamine B assay relative to control; format: functional; details: SK-MEL-5, 48 h, read-out: Activity
SF-295 = experiment: Growth inhibition of human SF295 cells assessed as cell growth at 100 uM incubated for 48 hrs by sulforhodamine B assay relative to control; format: functional; details: SF-295, 48 h, read-out: Activity
SK-MEL-5 [5] = experiment: Growth inhibition of human SK-MEL-5 cells assessed as cell growth at 0.01 uM incubated for 48 hrs by sulforhodamine B assay relative to control; format: functional; details: SK-MEL-5, 48 h, read-out: Activity
OVCAR-3 = experiment: Growth inhibition of human OVCAR3 cells assessed as cell growth at 0.1 uM incubated for 48 hrs by sulforhodamine B assay relative to control; format: functional; details: OVCAR-3, 48 h, read-out: Activity
DU-145 [6] = experiment: Growth inhibition of human DU145 cells assessed as cell growth at 0.01 uM incubated for 48 hrs by sulforhodamine B assay relative to control; format: functional; details: DU-145, 48 h, read-out: Activity
SF-268 = experiment: Growth inhibition of human SF268 cells assessed as cell growth at 100 uM incubated for 48 hrs by sulforhodamine B assay relative to control; format: functional; details: SF-268, 48 h, read-out: Activity
A498 = experiment: Growth inhibition of human A498 cells assessed as cell growth at 0.01 uM incubated for 48 hrs by sulforhodamine B assay relative to control; format: functional; details: A498, 48 h, read-out: Activity
RPMI-8226 = experiment: Growth inhibition of human RPMI8226 cells assessed as cell growth at 100 uM incubated for 48 hrs by sulforhodamine B assay relative to control; format: functional; details: RPMI-8226, 48 h, read-out: Activity
DU-145 [7] = experiment: Growth inhibition of human DU145 cells incubated for 48 hrs by sulforhodamine B assay; format: functional, cell-based; details: DU-145, 48 h
MDA-MB-435 = experiment: Growth inhibition of human MDA-MB-435 cells assessed as cell growth at 0.01 uM incubated for 48 hrs by sulforhodamine B assay relative to control; format: functional; details: MDA-MB-435, 48 h, read-out: Activity
K562 [8] = experiment: Growth inhibition of human K562 cells assessed as cell growth at 100 uM incubated for 48 hrs by sulforhodamine B assay relative to control; format: functional; details: K562, 48 h, read-out: Activity
TK-10 = experiment: Growth inhibition of human TK10 cells assessed as cell growth at 10 uM incubated for 48 hrs by sulforhodamine B assay relative to control; format: functional; details: TK-10, 48 h, read-out: Activity
SNB-75 [9] = experiment: Growth inhibition of human SNB75 cells assessed as cell growth at 0.01 uM incubated for 48 hrs by sulforhodamine B assay relative to control; format: functional; details: SNB-75, 48 h, read-out: Activity
HCT-116 = experiment: Growth inhibition of human HCT116 cells assessed as cell growth at 0.01 uM incubated for 48 hrs by sulforhodamine B assay relative to control; format: functional; details: HCT-116, 48 h, read-out: Activity
SK-MEL-28 = experiment: Growth inhibition of human SK-MEL-28 cells assessed as cell growth at 0.1 uM incubated for 48 hrs by sulforhodamine B assay relative to control; format: functional; details: SK-MEL-28, 48 h, read-out: Activity
A549 [10] = experiment: Growth inhibition of human A549/ATCC cells incubated for 48 hrs by sulforhodamine B assay; format: functional, cell-based; details: A549, 48 h
COLO 205 = experiment: Growth inhibition of human COLO205 cells assessed as cell growth at 100 uM incubated for 48 hrs by sulforhodamine B assay relative to control; format: functional; details: COLO 205, 48 h, read-out: Activity
SK-OV-3 [11] = experiment: Growth inhibition of human SKOV3 cells assessed as cell growth at 0.01 uM incubated for 48 hrs by sulforhodamine B assay relative to control; format: functional; details: SK-OV-3, 48 h, read-out: Activity
SNB-75 [12] = experiment: Growth inhibition of human SNB75 cells incubated for 48 hrs by sulforhodamine B assay; format: functional, cell-based; details: SNB-75, 48 h
OVCAR-8 = experiment: Growth inhibition of human OVCAR8 cells assessed as cell growth at 1 uM incubated for 48 hrs by sulforhodamine B assay relative to control; format: functional; details: OVCAR-8, 48 h, read-out: Activity
SK-OV-3 [13] = experiment: Growth inhibition of human SKOV3 cells assessed as cell growth at 1 uM incubated for 48 hrs by sulforhodamine B assay relative to control; format: functional; details: SK-OV-3, 48 h, read-out: Activity
NCI-H226 = experiment: Growth inhibition of human NCI-H226 cells assessed as cell growth at 1 uM incubated for 48 hrs by sulforhodamine B assay relative to control; format: functional; details: NCI-H226, 48 h, read-out: Activity
[14] = read-out: LC50 (the source's name)
[15] = read-out: pLC50 (the source's name) (converted)

Work on `COc1cc(Cl)cc(-c2nn(-c3cccc(NC(=O)Nc4ccc(Cl)c(Cl)c4)c3)cc2-c2ccncc2)c1` yielded a growth at 0.1 µM (K562 [1]) of 58%, a GI50 (SK-OV-3 [2]; read-out: GI50) of 3.5 µM and a CC50 (SK-OV-3 [2]; [14]) of over 100 µM. For the same molecule, the TGI (SK-OV-3 [2]; read-out: TGI) was 57 µM, the GI50 (SK-OV-3 [2]; read-out: pGI50 (converted)) was 3.63 µM and the CC50 (SK-OV-3 [2]; [15]) was over 100 µM. The TGI (SK-OV-3 [2]; read-out: pTGI (converted)) was 87.1 µM, the GI50 (UACC-257; read-out: GI50) was 1.54 µM and the CC50 (UACC-257; [14]) was over 100 µM. For the same molecule, the TGI (UACC-257; read-out: TGI) was 61.9 µM, the GI50 (UACC-257; read-out: pGI50 (converted)) was 1.86 µM and the CC50 (UACC-257; [15]) was over 100 µM. The TGI (UACC-257; read-out: pTGI (converted)) was 5.25 µM, the growth at 0.1 µM (IGROV-1) was 101% and the growth at 1 µM (MDA-MB-231) was 85%. For the same molecule, the GI50 (MOLT-4; read-out: GI50) was 1.59 µM, the CC50 (MOLT-4; [14]) was over 100 µM and the TGI (MOLT-4; read-out: TGI) was 61.3 µM. For the same molecule, the GI50 (MOLT-4; read-out: pGI50 (converted)) was 1.7 µM, the CC50 (MOLT-4; [15]) was over 100 µM and the TGI (MOLT-4; read-out: pTGI (converted)) was 6.17 µM. For the same molecule, the growth at 0.1 µM (A549 [3]) was 97%, the growth at 1 µM (SK-MEL-5 [4]) was 88% and the growth at 100 µM (SF-295) was -21%. For the same molecule, the growth at 0.01 µM (SK-MEL-5 [5]) was 95%, the growth at 0.1 µM (OVCAR-3) was 101% and the growth at 0.01 µM (DU-145 [6]) was 101%. It also gave a growth at 100 µM (SF-268) of 11%, a growth at 0.01 µM (A498) of 96% and a growth at 100 µM (RPMI-8226) of -34%. For the same molecule, the GI50 (DU-145 [7]; read-out: GI50) was 3 µM, the CC50 (DU-145 [7]; [14]) was over 100 µM and the TGI (DU-145 [7]; read-out: TGI) was over 100 µM. For the same molecule, the GI50 (DU-145 [7]; read-out: pGI50 (converted)) was 3.89 µM, the CC50 (DU-145 [7]; [15]) was over 100 µM and the TGI (DU-145 [7]; read-out: pTGI (converted)) was over 100 µM. For the same molecule, the growth at 0.01 µM (MDA-MB-435) was 93%, the growth at 100 µM (K562 [8]) was 3% and the growth at 10 µM (TK-10) was 19.8%. The growth at 0.01 µM (SNB-75 [9]) was 88%, the growth at 0.01 µM (HCT-116) was 105% and the growth at 0.1 µM (SK-MEL-28) was 103%. It also gave an IC50 (A549 [10]) of 1.48 µM, a GI50 (A549 [10]; read-out: GI50) of 1.48 µM and a CC50 (A549 [10]; [14]) of over 100 µM. The TGI (A549 [10]; read-out: TGI) was 15.3 µM, the GI50 (A549 [10]; read-out: pGI50 (converted)) was 1.48 µM and the CC50 (A549 [10]; [15]) was over 100 µM. The TGI (A549 [10]; read-out: pTGI (converted)) was 15.5 µM, the growth at 100 µM (COLO 205) was -100% and the growth at 0.01 µM (SK-OV-3 [11]) was 100%. It also gave a GI50 (SNB-75 [12]; read-out: GI50) of 2.11 µM, a CC50 (SNB-75 [12]; [14]) of over 100 µM and a TGI (SNB-75 [12]; read-out: TGI) of 45.6 µM. It also gave a GI50 (SNB-75 [12]; read-out: pGI50 (converted)) of 2.14 µM, a CC50 (SNB-75 [12]; [15]) of over 100 µM and a TGI (SNB-75 [12]; read-out: pTGI (converted)) of 49 µM. The growth at 1 µM (OVCAR-8) was 78%, the growth at 1 µM (SK-OV-3 [13]) was 100% and the growth at 1 µM (NCI-H226) was 82%.
